Where “and” joins values, the source holds several entries; their conditions need not be identical. Equal values may be shown once. Read-outs that look alike come from different tables or passages of the source.
Legend:
recombinant human AChE [1] = biological target: T1, recombinant human AChE (Homo sapiens, UniProt P22303); on IR or R: key: Reversible (R); Irreversible (IR); ND, not detected in enzyme-based AChE inhibition assay from current study
AChE in SH-SY5Y cells = AChE in SH-SY5Y cells (Homo sapiens, UniProt P22303); assay: cell-based
recombinant human AChE [2] = biological target: T1, recombinant human AChE; assay: biochemical; assay type: biochemical; details: for AC50: AC50 (uM)
recombinant human AChE [3] = biological target: T1, recombinant human AChE; assay: biochemical
recombinant human AChE [4] = biological target: T1, recombinant human AChE; assay: biochemical; remark: listed apart in the source
[5] = biological target: AChE in neural stem cell spheroids (Homo sapiens, UniProt P22303); assay: cell-based
[6] = biological target: AChE in neural stem cells (Homo sapiens, UniProt P22303); assay: cell-based
[7] = biological target: AChE in SH-SY5Y spheroids (Homo sapiens, UniProt P22303); assay: cell-based
recombinant human AChE [8] = biological target: T1, recombinant human AChE; assay: biochemical; remark: listed apart in the source
[9] = potency (IC50), SH-SY5Y cells monolayer
[10] = potency (IC50), Neural stem cell spheroid (24 h)
[11] = potency (IC50), Neural stem cell spheroid (48 h)
[12] = potency (IC50), SH-SY5Y spheroids (24 h)
[13] = potency (IC50), SH-SY5Y spheroids (48 h)
[14] = potency (IC50), Enzyme with microsomes
[15] = read-out: potency (IC50), SH-SY5Y spheroids (48 h)

Chain of AChE in SH-SY5Y spheroids (P22303 32-614): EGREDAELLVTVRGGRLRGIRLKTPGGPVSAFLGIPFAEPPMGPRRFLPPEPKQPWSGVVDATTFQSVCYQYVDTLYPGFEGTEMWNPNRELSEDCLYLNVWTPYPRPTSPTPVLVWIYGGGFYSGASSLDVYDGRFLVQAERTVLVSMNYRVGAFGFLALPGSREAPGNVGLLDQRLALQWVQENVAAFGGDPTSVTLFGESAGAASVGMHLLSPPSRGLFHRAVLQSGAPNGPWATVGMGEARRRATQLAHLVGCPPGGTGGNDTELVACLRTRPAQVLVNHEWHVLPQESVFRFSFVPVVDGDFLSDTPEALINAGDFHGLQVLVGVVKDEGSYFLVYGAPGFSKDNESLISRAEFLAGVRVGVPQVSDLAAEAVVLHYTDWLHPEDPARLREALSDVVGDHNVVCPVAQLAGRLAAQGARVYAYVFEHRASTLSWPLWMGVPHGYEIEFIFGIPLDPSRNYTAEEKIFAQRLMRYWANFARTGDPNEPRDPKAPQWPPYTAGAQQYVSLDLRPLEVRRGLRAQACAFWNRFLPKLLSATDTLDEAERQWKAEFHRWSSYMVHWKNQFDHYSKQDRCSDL
Chain of AChE in SH-SY5Y cells (P22303 32-614): as above
Chain of AChE in neural stem cell spheroids (P22303 32-614): as above
Chain of AChE in neural stem cells (P22303 32-614): as above
T1 sequence (P22303 32-614): as above

| Structure (SMILES) | CC-v2 (curve classes) (recombinant human AChE [1]) | CC-v2 (curve classes) (AChE in SH-SY5Y cells) | IC50 (AChE in SH-SY5Y cells; IC50 (uM)) | IC50 (AChE in SH-SY5Y cells; [9]) [µM] | IR or R (recombinant human AChE [2]) | AC50 (recombinant human AChE [2]) | CC-v2 (curve classes) (recombinant human AChE [3]) | IC50 (recombinant human AChE [3]; potency (IC50), Enzyme) [µM] | IC50 (recombinant human AChE [4]) [µM] | IC50 [5, 10] [µM] | IC50 [5, 11] [µM] | IC50 [6] [µM] | IC50 [7, 12] [µM] | IC50 [7, 13] [µM] | IC50 (recombinant human AChE [8]; [14]) [µM] | Efficacy (recombinant human AChE [1]) | Efficacy (recombinant human AChE [3]) | IC50 (recombinant human AChE [3]; IC50 (uM)) | further results |
| --- | --- | --- | --- | --- | --- | --- | --- | --- | --- | --- | --- | --- | --- | --- | --- | --- | --- | --- | --- |
| CCCCN(CCCC)SN(C)C(=O)Oc1cccc2c1OC(C)(C)C2 [Carbosulfan] | -1.1 | -1.1 | 0.159 µM and 0.809 µM and 0.126 µM and 1.14 µM and 0.224 µM and 0.573 µM | 3.23 | R | 993 nM (3×) and 1.11 µM and 885 nM | -1.1 | 1.67 | 1.36 ± 0.19 | 5.25 | 8.89 | 10.9 | 0.46 | 0.68 | 0.44 | – | – | – | IC50 (recombinant human AChE [8]; IC50 (uM)): 3.56 µM and 0.573 µM |
| CCOP(=S)(OCC)OC(Cl)C(Cl)(Cl)Cl (centres unmarked) [Chlorethoxyfos] | -1.1 | -2.1 | 35.6 µM | 28.3 | – | 1.57 µM | -2.1 | 60.4 | 65.2 ± 4.42 | 42.8 | 47 | 46.2 | 33.2 | – | 5.86 | -100.975 | -89.198 | 79.6 µM | IC50 (AChE in SH-SY5Y cells; read-out: IC50): 31.7 µM; IC50 [7, 15]: 37.3 µM; IC50 (recombinant human AChE [8]; IC50 (uM)): 28.3 µM |
| CCOP(=S)(OCC)Oc1nc(Cl)c(Cl)cc1Cl [Chlorpyrifos, reference compound] | -1.1 | -2.1 | 35.6 µM and 35.7 µM and 44.9 µM and 63.5 µM | 41.1 | – | 28 µM and 44.4 µM and 62.7 µM and 49.8 µM and 55.9 µM | – | 48 | 95.7 ± 6.24 | – | 2.58 | 11.9 | 41.7 | 36.7 | 1.4 | – | – | 89.4 µM and 79.9 µM and 89.6 µM | IC50 (AChE in SH-SY5Y cells; read-out: IC50): 39.9 µM and 40 µM; IC50 ([5]; read-out: potency (IC50), Neural stem cell spheroid (24 h)): 1.21 µM |
| CCOP(=S)(OCC)SC(CCl)N1C(=O)c2ccccc2C1=O (centres unmarked) [Dialifor] | -1.1 | -2.1 | 31.7 µM | 14.6 | – | – | -2.1 | 41.1 | 28.1 ± 3.23 | 9.74 | 20.1 | 15.2 | 25.7 | 15.7 | 2.69 | -102.338 | -100.017 | – | reversibility of AChE inhibition (result in words) (recombinant human AChE [2]): irreversibility |
| CCOP(=O)(OCC)Oc1cc(C)nc(C(C)C)n1 [Diazoxon] | -1.1 | -1.1 | 0.143 µM and 0.179 µM and 0.201 µM | 0.26 ± 0.03 | – | 44.6 µM | -1.1 | 1.12 ± 0.12 | 2.25 ± 0.26 | 0.22 | 0.39 ± 0.07 | 0.24 ± 0.04 | 2.3 ± 0.96 | – | 3.69 ± 0.24 | -95.678 | -95.835 | – | IC50 [7, 15]: 0.5 µM |
| Cc1cc(OC(=O)N(C)C)nn1C(=O)N(C)C [Dimetilan] | -2.1 | -1.1 | 7.1 µM | 6.89 ± 3.77 | R | 49.8 µM (2×) and 31.4 µM and 19.8 µM (2×) and 55.9 µM and 12.5 µM and 5.59 µM and 14 µM | -1.1 | 16 ± 3.66 | 11.6 ± 1.49 | 1.53 ± 0.26 | 3.12 ± 1.72 | 4.45 ± 0.51 | 15.8 ± 16.9 | 7.03 | 9.97 ± 1.14 | -61.098 | -84.168 | – | – |
| CN1CCc2cc(Cl)c(O)cc2[C@H]2c3ccccc3CC[C@@H]21 [Ecopipam, reference compound] | 4 | -2.2 | 27.5 µM and 34.7 µM | 15.8 | R | 21.7 µM (2×) and 9.68 µM and 19.3 µM and 15.3 µM (2×) and 17.2 µM | -2.2 | 20.1 | 32.7 ± 9.64 | – | 3.16 | 17.5 | – | 17.7 | 27.3 | 0 | -53.005 | 34.7 µM | – |
| CCOP(=O)(Sc1ccccc1)Sc1ccccc1 [Edifenphos] | -3 | -1.1 | 3.99 µM and 3.17 µM and 5.02 µM | 1.73 ± 0.43 | – | 28 µM and 62.7 µM and 31.4 µM (2×) and 25 µM and 49.8 µM and 35.2 µM | -2.1 | 4.79 ± 0.31 | 3.03 ± 0.2 | 0.88 ± 0.1 | 1.21 ± 0.17 | 1.31 ± 0.23 | 4.79 ± 1.57 | 2.08 ± 0.37 | 7.31 ± 0.49 | -113.282 | -122.577 | – | – |
| CCOP(=S)(OCC)SCSP(=S)(OCC)OCC [Ethion] | -1.1 | -2.1 | 39.9 µM and 35.6 µM and 31.7 µM | 17 ± 1.1 | – | 49.8 µM (3×) and 55.9 µM (3×) and 88.5 µM and 62.7 µM | -2.1 | 7.92 ± 0.91 | 58.7 ± 10.6 | 0.09 ± 0.02 | 0.48 ± 0.46 | 7.03 ± 3.56 | 31.9 ± 21.6 | 42.8 ± 2.79 | 11.1 | -94.606 | -121.235 | – | – |
| CCN(C(=O)c1cc(C)cc(OC[C@H](C)Nc2ccncc2)c1)C(C)C.Cc1ccc(S(=O)(=O)O)cc1 [GW473178E methyl benzene sulfonic acid] | -2.2 | -1.1 | 12.5 µM and 11.1 µM | 23.3 | R | 11 µM (2×) and 19.6 µM and 9.82 µM (3×) and 8.76 µM and 12.4 µM | -2.1 | 10.6 | 19.7 ± 2.26 | – | 31.2 | 24.8 | 9.63 | 24 | 18.9 | -52.62 | -70.195 | 22.2 µM | potency (IC50), Neural stem cell spheroid (24 h) [5]: Inactive; IC50 (recombinant human AChE [8]; IC50 (uM)): 49.7 µM |
| Cc1c(Cl)c(=O)oc2cc(OP(=O)(OCCCl)OCCCl)ccc12 [Haloxon] | -1.1 | -1.1 | 3.89 µM and 4.36 µM and 3.09 µM | 1.51 ± 0.09 | – | 1.4 µM and 1.57 µM (2×) and 1.11 µM (2×) and 1.25 µM and 885 nM and 993 nM | -1.1 | 0.63 ± 0.11 | 1.35 ± 0.09 | 0.2 ± 0.17 | 0.18 ± 0.05 | 0.39 | 0.88 ± 0.64 | 1.12 ± 0.13 | 2.81 ± 0.32 | -94.886 | -92.736 | – | – |
| O=C(Nc1cccc(C2=NCCN2)c1)Nc1cccc(C2=NCCN2)c1 [Imidocarb dipropionate, reference compound] | 4 | -1.1 | 3.79 µM and 4.25 µM | 5.07 ± 0.64 | R | 15.3 µM (2×) and 17.2 µM and 19.3 µM and 10.9 µM and 13.7 µM and 21.7 µM and 12.2 µM | -2.1 | 18.5 ± 10.1 | 25.7 ± 5.81 | 19.4 ± 2.22 | 19.3 | 19.3 | 6.56 ± 6.21 | 7.41 ± 0.48 | 27.6 ± 5.16 | 0 | -76.607 | 10.7 µM | – |
| CNC(=O)Oc1ccccc1C(C)C [Isoprocarb] | -2.1 | -1.1 | 3.56 µM and 4.48 µM | 8.21 ± 0.55 | R | 9.93 µM and 14 µM and 17.7 µM and 22.2 µM and 12.5 µM and 4.98 µM and 3.95 µM and 5.59 µM | -1.1 | 6.55 ± 0.83 | 9.21 ± 0.62 | – | 39.6 | 21 ± 9.16 | 5.45 ± 4.07 | 12.5 | 8.53 ± 0.55 | -88.562 | -91.575 | – | potency (IC50), Neural stem cell spheroid (24 h) [5]: Inactive |
| CCOP(=S)(OCC)Oc1cc(-c2ccccc2)on1 [Isoxathion] | -1.1 | -2.1 | 63.3 µM and 79.6 µM | 17 | – | 55.9 µM (2×) and 49.8 µM (3×) and 44.4 µM (2×) | -3 | 44.4 | 85.3 ± 5.56 | 0.73 | 1.68 | 6.1 | 27 | 17.7 | 2.11 | -99.076 | -107.392 | – | – |
| COc1ccc(C(=O)NCc2ccc(OCCN(C)C)cc2)cc1OC.Cl [Itopride hydrochloride, reference compound] | 4 | -1.1 and -2.1 | 6.92 µM and 4.9 µM and 5.5 µM | 7.68 | R | 15.3 µM (3×) and 21.7 µM and 17.2 µM and 19.3 µM | -2.2 | 12.7 ± 0.85 | 22.6 ± 1.53 | 23.5 ± 3.23 | 14.2 | 11.2 ± 3.11 | 4.44 ± 3.53 | 11.2 ± 3.12 | 19.4 ± 2.22 | 0 | -69.798 | 27.5 µM | – |

From PMC8041433 (Environmental Health Perspectives, 2021)
